# *1 amine or outer side, *2 acyl side, *3 side chain or, on linkers, in order; H or OH if unused. Where a SMILES comes first, the peptide text is derived from it. Bridges are numbered along the chain shown (N, C = ends). [ ]: non-standard residue; d: D form. The star is where a group is joined. X1 = CC[C@H](C)[C@@H](N[*:1])[C@@H](O)CC(=O)O[C@H](C(=O)[C@H](C)C(=O)[*:2])C(C)C; NMeY = CN[C@@H](Cc1ccc(O)cc1)C(=O)O; dNMeL = CN[C@H](CC(C)C)C(=O)O; Pyruvoyl = CC(=O)C(=O)*
# Biological target: eEF1A2 purified from rabbit muscle (Oryctolagus cuniculus, UniProt Q71V39)
# Experiment: biochemical
# Description: (A) Saturation binding curve. Protein and radioligand were incubated for 1 h at room temperature and samples were processed as described in the text. […] The experiment was performed as described in the text, and the experimental points were fitted to a single exponential decay equation by non-linear regression. […] Extracts were then digested with the indicated concentrations of subtilisin for 30 min at room temperature. Samples were resolved by SDS-PAGE and the degradation of eEF1A2 analyzed by Western blot; quantitation of the bands from the DARTS assay was performed with the ImageJ software.
# At the selected times after this last addition, 400 μL of each sample were withdrawn and processed as above.
# Sequence of eEF1A2 purified from rabbit muscle (Q71V39 whole entry): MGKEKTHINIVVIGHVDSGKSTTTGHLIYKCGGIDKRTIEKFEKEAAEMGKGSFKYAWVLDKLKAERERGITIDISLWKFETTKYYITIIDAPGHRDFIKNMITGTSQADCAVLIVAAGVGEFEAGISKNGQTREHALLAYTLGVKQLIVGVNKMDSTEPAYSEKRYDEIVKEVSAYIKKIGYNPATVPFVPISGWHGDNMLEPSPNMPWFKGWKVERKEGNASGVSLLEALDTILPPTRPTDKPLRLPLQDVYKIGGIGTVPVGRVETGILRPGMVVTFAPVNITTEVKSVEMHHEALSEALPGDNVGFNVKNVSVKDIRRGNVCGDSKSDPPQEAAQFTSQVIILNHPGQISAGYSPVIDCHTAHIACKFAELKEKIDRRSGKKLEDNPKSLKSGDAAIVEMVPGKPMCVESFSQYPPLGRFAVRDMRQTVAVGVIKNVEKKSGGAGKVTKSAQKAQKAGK
smiles,measurement,setting,value
"CC[C@H](C)[C@H]1NC(=O)[C@@H](NC(=O)[C@@H](CC(C)C)N(C)C(=O)[C@@H]2CCCN2C(=O)C(C)=O)[C@@H](C)OC(=O)[C@H](Cc2ccc(OC)cc2)N(C)C(=O)[C@@H]2CCCN2C(=O)[C@H](CC(C)C)NC(=O)[C@@H](C)C(=O)[C@H](C(C)C)OC(=O)C[C@@H]1O [plitidepsin, Plitidepsin] (Pyruvoyl-P[dNMeL]T[X1]LP[NMeY](Me); ester 3-C (inferred))",koff,read-out: kOFF (first-order rate constant of dissociation),0.0019 ± 8e-07 s⁻¹
same,residence time,"read-out: target residence time, from dissociation kinetics (kOFF), rabbit eEF1A2",8.8 min
